# Assay results reported in patent publication US10251902B2, “Pharmaceutical composition for treating or preventing neuropsychiatric disease, containing flavone-6-C-glucose derivatives as active ingredients” (priority 2013, dated 2019).
# Tests used:
# [1] = system: model of memory impairment induced by scopolamine; assay: Passive avoidance test in scopolamine-induced memory impairment model; format: in vivo, ICR mice; details: for Main Experiment / Passive Avoidance Learning: scopolamine 1 mg/Kg i.p.; for Main Experiment: latency 24 h after learning; for latency time extended compared to that of the control 2: main experiment, control 2 = scopolamine
# Method: (§1) An experiment was conducted to confirm effects of swertisin or isoorientin, and extracts of Swertia pseudochinensis or Swertia japonica containing the same prepared in Examples 1 to 3 in treating dementia by using a model of memory impairment induced by scopolamine. Detailed method follows.
# (§2) Six-week old ICR mice in about 26 g to 28 g (Orientbio Inc, Republic of Korea) were received water and feed without constraint and adapted for 5 days under an environment having about 23±1° C. of temperature, about 60±10% of humidity and 12-hour light/dark cycle (animal laboratory at College of Pharmacy, Kyung-Hee University), and then used for the experiment.
# An apparatus for measuring passive avoidance reaction was prepared. The apparatus has 2 separated chambers (the first and second chambers) and there is a guillotine-shaped passage that connects the first chamber and the second chamber. The first chamber was maintained brightly by using a light, and the second chamber was maintained darkly. A grid was installed on the floor of the second chamber. The grid generates 0.5 mA of electric shock for 3 seconds when the laboratory animal moved into the dark chamber.
# About 30 minutes later, 1 mg/Kg of scopolamine, which was dissolved in distilled water, was intraperitoneally administered to the drug administration groups 1 to 4 and controls 1 and 2 (Ebert, U. et al., Eur. J. Clin. Invest., 28, pp 944-949, 1998), and 0.9% of saline solution was intraperitoneally administered to the control 3. After 30 minutes, passive avoidance learning was conducted on the drug administration groups 1-4 and controls 1-3. In detail, the mice were located in the first chamber (i.e. bright space) and the passage was open after about 20 seconds of observation time, and then latency time of the mice moving to the second chamber (i.e. dark space) was measured.
# Twenty-four hours after the passive avoidance learning, a main experiment was conducted on the drug administration groups 1-4 and controls 1-3. Latency time of the mice of each group moving their 4 legs into the dark space after 10 seconds of observation time from opening of the guillotine-shaped passage was measured up to 300 seconds. It means that the passive avoidance learning and memory are better if the latency time is longer.
# (§3) The passive avoidance test was conducted on the drug administration groups 1-4 and controls 1-3 in the same manner as the method explained above except that swertisin, which is one of the flavone-6-C-β-D-glucose derivatives prepared in Example 3, was dissolved in 10% Tween 80 and administered to the drug administration groups 1-4 in amounts of 1.25 mg/kg, 2.5 mg/kg, 5 mg/kg and 10 mg/kg respectively.
# as §3, with “Experimental Example 1-1” for “the method explained above”, “isoorientin,” for “swertisin,”
# (§4) The passive avoidance test was conducted on the drug administration groups 1-3 and controls 1-3 in the same manner as Experimental Example 1-1 except that a 70% ethanol extract of Swertia japonica prepared in Example 1, was dissolved in 10% Tween and administered to the drug administration groups 1-3 in amounts of 100 mg/kg, 200 mg/kg and 400 mg/kg respectively.
# as §4, with “pseudochinensis” for “japonica”, “2,” for “1,”, “Tween 80” for “Tween”
# [2] = system: model of memory impairment induced by scopolamine; assay: Y-maze test in scopolamine-treated mice; format: in vivo, ICR mice; details: donepezil 5 mg/Kg (Control 1), scopolamine 1 mg/Kg i.p.
# Method: as §1, §2
# A Y-maze was prepared for the experiment. The Y-maze has 3 branches and each branch has 42 cm of length, 3 cm of width and 12 cm of height. Angle between any two arms is 120 degrees and the arms were made of black polyvinyl resin.
# The mice prepared in the above 1) were separated into 5 groups (10 mice per each group) comprised of drug administration groups 1 and 2, and controls 1 to 3.
# The swertisin prepared in Example 3 (8 mg) was dissolved in 4 mL of 10% Tween 80 (Polyoxyethylene sorbitan monooleate: Sigma, U.S.A.), and administered to the drug administration groups 1 and 2 in an amounts of 5 mg/Kg and 10 mg/Kg respectively. Meanwhile, 5 mg/Kg of donepezil was administered to the control 1, and 0.15 mL of 10% Tween 80 was administered to the controls 2 and 3 respectively.
# About 30 minutes later, 1 mg/Kg of scopolamine, which was dissolved in distilled water, was intraperitoneally administered to the drug administration groups 1 and 2, and controls 1 and 2 (Ebert, U. et al., Eur. J. Clin. Invest., 28, pp. 944-949, 1998), and 0.9% of saline solution was intraperitoneally administered to the control 3.
# After 30 minutes, mice of the drug administration groups 1 and 2, and the controls 1-3 were carefully located on each branches of the Y-maze, which was divided as A, B and C respectively, and let the mice move freely for 8 minutes, and then recorded branches where mice have entered. The entrance was recorded when the entire body (i.e. including the tail) has completely entered. It was also recorded when the mice entered again into the branch that the mice have entered before.
# One point was scored when the mouse sequentially entered into 3 different branches (actual alternation). Alternation behavior is defined as sequentially entering into every 3 branch, and it was converted into % via Equation 1 below (Sarter, M. et al., Psychopharmacology., 94, pp. 491-495, […]).
structure (smiles),measurement,setting,value
"COc1cc2c(cc1OC)C(=O)C(CC1CCN(Cc3ccccc3)CC1)C2 (stereo not drawn) [Donepezil, donepezil, reference compound]",Main Experiment,"[1]; Table 2, Control 1 (Donepezil), dose not given",138.7 ± 34.03 s
same,Passive Avoidance Learning,"[1]; Table 2, Control 1 (Donepezil), dose not given, learning trial",25.60 ± 10.83 s
same,Main Experiment,"[1]; Table 3, Control 1 (Donepezil), dose not given",127.8 ± 11.43 s
same,Passive Avoidance Learning,"[1]; Table 3, Control 1 (Donepezil), dose not given, learning trial",21.30 ± 4.964 s
same,Main Experiment,"[1]; Table 4, Control 1 (Donepezil), dose not given",169.6 ± 79.98
same,Passive Avoidance Learning,"[1]; Table 4, Control 1 (Donepezil), dose not given, learning trial",26.40 ± 16.23
same,Main Experiment,"[1]; Table 5, Control 1 (Donepezil), dose not given",159.6 ± 65.51
same,Passive Avoidance Learning,"[1]; Table 5, Control 1 (Donepezil), dose not given, learning trial",28.10 ± 19.02
same,Alternation Behavior (%),"[2]; Table 6, 8 minutes in Y-maze",61.49 ± 5.447%
same,Total Entry,"[2]; Table 7, total number of entry to each branch, 8 minutes",29.30 ± 4.296
O=c1cc(-c2ccc(O)c(O)c2)oc2cc(O)c([C@@H]3O[C@H](CO)[C@@H](O)[C@H](O)[C@H]3O)c(O)c12 [isoorientin],Main Experiment,"[1]; Table 3, isoorientin 1.25 mg/kg, up to 300 seconds",41.00 ± 7.988 s
same,Passive Avoidance Learning,"[1]; Table 3, isoorientin 1.25 mg/kg, latency in learning trial",43.60 ± 5.340 s
same,Main Experiment,"[1]; Table 3, isoorientin 2.5 mg/kg, up to 300 seconds",80.90 ± 19.44 s
same,Passive Avoidance Learning,"[1]; Table 3, isoorientin 2.5 mg/kg, latency in learning trial",40.00 ± 5.499 s
same,Main Experiment,"[1]; Table 3, isoorientin 5 mg/kg, up to 300 seconds",119.3 ± 73.43 s
same,Passive Avoidance Learning,"[1]; Table 3, isoorientin 5 mg/kg, latency in learning trial",35.20 ± 5.236 s
same,Main Experiment,"[1]; Table 3, isoorientin 10 mg/kg, up to 300 seconds",102.8 ± 15.89 s
same,Passive Avoidance Learning,"[1]; Table 3, isoorientin 10 mg/kg, latency in learning trial",26.80 ± 5.085 s
same,latency time extended compared to that of the control 2,[1]; isoorientin 2.5 mg/Kg,about 2 fold
same,latency time extended compared to that of the control 2,[1]; isoorientin 5 mg/Kg,about 3 fold
same,latency time extended compared to that of the control 2,[1]; isoorientin 10 mg/Kg,about 2.5 fold
